These results are taken from ChEMBL document CHEMBL5696441 (Nat Chem Biol, 2011).

What is called IC50 is the concentration at which inhibition is half-maximal.

Experiment [1] has as its target T1, Serine/threonine-protein kinase D3 (Homo sapiens) (UniProt O94806).
T1 sequence (whole entry): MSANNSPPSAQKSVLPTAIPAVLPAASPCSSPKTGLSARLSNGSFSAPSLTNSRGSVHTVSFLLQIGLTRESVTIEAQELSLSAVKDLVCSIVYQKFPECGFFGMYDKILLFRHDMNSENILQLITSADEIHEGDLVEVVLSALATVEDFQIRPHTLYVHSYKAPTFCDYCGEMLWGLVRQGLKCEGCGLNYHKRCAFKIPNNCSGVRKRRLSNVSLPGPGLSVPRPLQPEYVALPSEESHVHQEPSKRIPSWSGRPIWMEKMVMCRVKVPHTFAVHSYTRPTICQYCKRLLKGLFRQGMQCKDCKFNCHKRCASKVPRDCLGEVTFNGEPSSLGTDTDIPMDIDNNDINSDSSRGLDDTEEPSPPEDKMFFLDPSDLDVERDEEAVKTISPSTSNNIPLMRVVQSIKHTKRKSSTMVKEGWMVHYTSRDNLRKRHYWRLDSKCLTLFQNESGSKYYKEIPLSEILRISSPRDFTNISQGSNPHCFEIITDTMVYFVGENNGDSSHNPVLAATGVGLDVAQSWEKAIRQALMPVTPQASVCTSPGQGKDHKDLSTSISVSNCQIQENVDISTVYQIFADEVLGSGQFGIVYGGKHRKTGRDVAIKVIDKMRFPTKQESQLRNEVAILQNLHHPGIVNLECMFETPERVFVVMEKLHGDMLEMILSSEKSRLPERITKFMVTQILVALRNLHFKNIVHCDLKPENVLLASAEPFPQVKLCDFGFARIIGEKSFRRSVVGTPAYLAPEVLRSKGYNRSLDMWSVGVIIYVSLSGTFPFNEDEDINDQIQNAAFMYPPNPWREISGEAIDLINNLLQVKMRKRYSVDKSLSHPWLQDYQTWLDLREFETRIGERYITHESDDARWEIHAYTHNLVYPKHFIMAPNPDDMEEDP
As to the kind of experiment: Inhibition of human PKCnu assessed as residual activity at 1 uM using bio-4xCHKT as substrate in presence of 33P-ATP by ProQinase assay relative to control.

The target in experiment [2] is Serine/threonine-protein kinase ULK1 (Homo sapiens) (UniProt O75385). As to the kind of experiment: Inhibition of ULK1 (unknown origin) assessed as remaining activity at 1 uM by Kinome scan method relative to control.
Chain of Serine/threonine-protein kinase ULK1 (Homo sapiens) (O75385 whole entry): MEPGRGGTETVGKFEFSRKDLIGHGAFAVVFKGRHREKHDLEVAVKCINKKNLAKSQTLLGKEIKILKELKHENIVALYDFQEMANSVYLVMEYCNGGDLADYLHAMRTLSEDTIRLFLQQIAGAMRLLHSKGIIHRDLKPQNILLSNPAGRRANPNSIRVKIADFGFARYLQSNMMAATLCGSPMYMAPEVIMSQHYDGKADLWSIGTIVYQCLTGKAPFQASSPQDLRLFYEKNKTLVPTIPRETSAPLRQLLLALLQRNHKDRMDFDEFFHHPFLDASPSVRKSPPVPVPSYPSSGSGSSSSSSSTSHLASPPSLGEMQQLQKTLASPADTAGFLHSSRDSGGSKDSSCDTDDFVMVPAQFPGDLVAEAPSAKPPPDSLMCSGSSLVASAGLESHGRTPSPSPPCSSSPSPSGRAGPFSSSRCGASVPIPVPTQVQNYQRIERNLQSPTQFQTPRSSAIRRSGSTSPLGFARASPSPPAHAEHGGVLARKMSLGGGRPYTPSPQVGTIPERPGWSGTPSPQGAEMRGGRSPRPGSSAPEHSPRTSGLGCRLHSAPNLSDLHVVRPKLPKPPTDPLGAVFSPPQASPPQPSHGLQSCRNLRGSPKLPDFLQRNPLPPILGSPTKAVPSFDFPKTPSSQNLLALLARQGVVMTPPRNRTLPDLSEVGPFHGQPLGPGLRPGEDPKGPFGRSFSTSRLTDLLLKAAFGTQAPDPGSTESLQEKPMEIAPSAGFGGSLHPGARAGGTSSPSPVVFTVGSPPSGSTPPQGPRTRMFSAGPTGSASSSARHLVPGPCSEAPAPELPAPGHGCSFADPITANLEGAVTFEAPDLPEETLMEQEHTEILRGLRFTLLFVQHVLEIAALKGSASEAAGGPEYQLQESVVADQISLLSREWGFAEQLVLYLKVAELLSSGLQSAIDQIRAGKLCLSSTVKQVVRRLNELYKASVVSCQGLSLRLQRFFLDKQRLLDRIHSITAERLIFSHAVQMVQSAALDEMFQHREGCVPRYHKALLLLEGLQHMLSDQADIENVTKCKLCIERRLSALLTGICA
Experiment [3] deals with Fibroblast growth factor receptor 3 (Homo sapiens), P22607 [K650E]. As to the kind of experiment: Inhibition of human FGFR3 K650E mutant assessed as residual activity at 1 uM using PolyEY as substrate in presence of 33P-ATP by ProQinase assay relative to control.
For experiment [4], the target named is Leukocyte tyrosine kinase receptor (Homo sapiens) (UniProt P29376). As to the kind of experiment: Inhibition of human LTK assessed as residual activity at 1 uM using polyEY as substrate in presence of 33P-ATP by ProQinase assay relative to control.
The target of experiment [5] is Calcium/calmodulin-dependent protein kinase type II subunit delta (Homo sapiens) (UniProt Q13557). As to the kind of experiment: Inhibition of human CAMK2D assessed as residual activity at 1 uM using RBER-CHKtide as substrate in presence of 33P-ATP by ProQinase assay relative to control.
Chain of Calcium/calmodulin-dependent protein kinase type II subunit delta (Homo sapiens) (Q13557 whole entry): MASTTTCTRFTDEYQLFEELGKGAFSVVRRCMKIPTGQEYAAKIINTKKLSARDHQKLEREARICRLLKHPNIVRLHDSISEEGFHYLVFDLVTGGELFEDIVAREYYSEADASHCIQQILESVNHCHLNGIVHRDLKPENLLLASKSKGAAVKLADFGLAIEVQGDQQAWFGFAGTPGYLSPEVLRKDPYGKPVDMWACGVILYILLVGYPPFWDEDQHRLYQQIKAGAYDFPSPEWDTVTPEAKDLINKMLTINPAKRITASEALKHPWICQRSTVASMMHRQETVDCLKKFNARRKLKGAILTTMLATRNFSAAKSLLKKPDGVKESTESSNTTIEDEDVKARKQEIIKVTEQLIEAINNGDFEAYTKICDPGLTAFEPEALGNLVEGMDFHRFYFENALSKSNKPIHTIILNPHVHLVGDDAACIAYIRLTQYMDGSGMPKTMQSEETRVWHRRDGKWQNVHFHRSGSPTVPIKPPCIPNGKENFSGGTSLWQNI
The test system of experiment [6] is Tyrosine-protein kinase ABL1 (Homo sapiens), P00519 [T315I]. As to the kind of experiment: Inhibition of human ABL1 T315I mutant assessed as residual activity at 1 uM using Poly(Ala,Glu,Lys,Tyr)6:2:5:1 as substrate in presence of 33P-ATP by ProQinase assay relative to control.
Experiment [7] deals with NT-3 growth factor receptor (Homo sapiens) (UniProt Q16288). As to the kind of experiment: Inhibition of human TRKC assessed as residual activity at 1 uM using polyEy as substrate in presence of 33P-ATP by ProQinase assay relative to control.
In experiment [8] the target is Platelet-derived growth factor receptor alpha (Homo sapiens) (UniProt P16234). As to the kind of experiment: Inhibition of human PDGFRalpha assessed as residual activity at 1 uM using Poly(Ala,Glu,Lys,Tyr)6:2:5:1 as substrate in presence of 33P-ATP by ProQinase assay relative to control.
Experiment [9] is described as follows: Anti-inflammatory activity against human derived medium respond PBMC cells assessed as inhibition in stimulated IL-8 cytokine release incubated for 2 hrs in the presence of LPS/SEB/aCD28 by Luminex based sandwich immunoassay. Type of experiment: functional, cell-based.
The target of experiment [10] is Mitogen-activated protein kinase kinase kinase 11 (Homo sapiens) (UniProt Q16584). As to the kind of experiment: Inhibition of human MAP3K11 assessed as residual activity at 1 uM using MBP as substrate in presence of 33P-ATP by ProQinase assay relative to control.
Chain of Mitogen-activated protein kinase kinase kinase 11 (Homo sapiens) (Q16584 whole entry, looked up): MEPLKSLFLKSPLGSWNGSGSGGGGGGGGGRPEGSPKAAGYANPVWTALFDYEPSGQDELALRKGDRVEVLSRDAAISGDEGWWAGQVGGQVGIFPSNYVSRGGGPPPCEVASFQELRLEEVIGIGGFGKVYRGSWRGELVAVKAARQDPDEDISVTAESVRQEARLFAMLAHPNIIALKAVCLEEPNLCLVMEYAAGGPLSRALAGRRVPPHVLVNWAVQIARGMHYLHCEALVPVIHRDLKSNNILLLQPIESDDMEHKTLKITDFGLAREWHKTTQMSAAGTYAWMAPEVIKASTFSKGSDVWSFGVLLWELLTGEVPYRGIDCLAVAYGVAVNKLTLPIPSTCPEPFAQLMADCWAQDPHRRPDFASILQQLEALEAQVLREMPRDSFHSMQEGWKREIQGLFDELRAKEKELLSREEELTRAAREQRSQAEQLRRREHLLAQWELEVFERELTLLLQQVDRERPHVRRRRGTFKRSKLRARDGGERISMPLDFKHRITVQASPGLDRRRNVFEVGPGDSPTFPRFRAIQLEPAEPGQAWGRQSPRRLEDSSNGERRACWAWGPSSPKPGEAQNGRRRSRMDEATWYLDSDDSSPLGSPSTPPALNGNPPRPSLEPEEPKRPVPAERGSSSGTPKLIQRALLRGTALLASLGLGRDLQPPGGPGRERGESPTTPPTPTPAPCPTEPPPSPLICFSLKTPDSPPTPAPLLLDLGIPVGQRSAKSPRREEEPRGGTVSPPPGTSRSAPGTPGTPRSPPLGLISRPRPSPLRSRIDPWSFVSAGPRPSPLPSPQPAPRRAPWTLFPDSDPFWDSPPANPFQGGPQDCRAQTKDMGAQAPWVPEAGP
Experiment [11] concerns the target Tyrosine-protein kinase HCK (Homo sapiens) (UniProt P08631). As to the kind of experiment: Inhibition of human HCK assessed as residual activity at 1 uM using polyEY as substrate in presence of 33P-ATP by ProQinase assay relative to control.
In experiment [12] the target is Proto-oncogene tyrosine-protein kinase Src (Homo sapiens) (UniProt P12931). As to the kind of experiment: Inhibition of SRC (unknown origin) assessed as remaining activity at 1 uM by Kinome scan method relative to control.
Chain of Proto-oncogene tyrosine-protein kinase Src (Homo sapiens) (P12931 2-536 limits assumed): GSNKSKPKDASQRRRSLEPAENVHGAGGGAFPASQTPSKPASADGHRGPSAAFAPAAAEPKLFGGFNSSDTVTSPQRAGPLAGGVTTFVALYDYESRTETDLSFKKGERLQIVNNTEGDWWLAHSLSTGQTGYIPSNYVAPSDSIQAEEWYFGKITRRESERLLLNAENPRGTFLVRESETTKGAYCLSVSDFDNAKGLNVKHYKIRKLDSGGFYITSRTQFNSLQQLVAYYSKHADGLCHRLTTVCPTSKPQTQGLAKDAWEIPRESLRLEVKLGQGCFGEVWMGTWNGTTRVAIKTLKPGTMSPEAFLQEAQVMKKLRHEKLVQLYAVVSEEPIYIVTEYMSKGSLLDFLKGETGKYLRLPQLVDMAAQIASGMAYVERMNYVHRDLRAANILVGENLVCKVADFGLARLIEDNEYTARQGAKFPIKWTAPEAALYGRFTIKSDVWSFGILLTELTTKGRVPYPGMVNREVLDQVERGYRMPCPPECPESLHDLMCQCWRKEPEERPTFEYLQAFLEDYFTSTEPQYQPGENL
The target in experiment [13] is T2, Aurora kinase A (Homo sapiens) (UniProt O14965).
T2 sequence (whole entry): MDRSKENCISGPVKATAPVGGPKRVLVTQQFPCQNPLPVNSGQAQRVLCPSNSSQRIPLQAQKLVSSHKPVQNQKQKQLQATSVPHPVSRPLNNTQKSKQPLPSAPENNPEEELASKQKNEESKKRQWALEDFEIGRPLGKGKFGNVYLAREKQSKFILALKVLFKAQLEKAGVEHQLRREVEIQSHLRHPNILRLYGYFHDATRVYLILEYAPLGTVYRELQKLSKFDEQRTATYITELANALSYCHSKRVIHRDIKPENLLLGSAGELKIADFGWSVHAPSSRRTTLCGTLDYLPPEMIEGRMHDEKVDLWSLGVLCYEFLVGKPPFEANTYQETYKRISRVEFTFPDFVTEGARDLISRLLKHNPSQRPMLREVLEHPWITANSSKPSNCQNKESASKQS
As to the kind of experiment: Inhibition of human AuroraA assessed as residual activity at 1 uM using bio-4xCHKT as substrate in presence of 33P-ATP by ProQinase assay relative to control.

Experiment [14] relates to Proto-oncogene tyrosine-protein kinase receptor Ret (Homo sapiens), P07949 [V804L]. As to the kind of experiment: Inhibition of human RET V804L mutant assessed as residual activity at 1 uM using polyEY as substrate in presence of 33P-ATP by ProQinase assay relative to control.
Chain of Proto-oncogene tyrosine-protein kinase receptor Ret (Homo sapiens), P07949 [V804L] (P07949 whole entry V804L): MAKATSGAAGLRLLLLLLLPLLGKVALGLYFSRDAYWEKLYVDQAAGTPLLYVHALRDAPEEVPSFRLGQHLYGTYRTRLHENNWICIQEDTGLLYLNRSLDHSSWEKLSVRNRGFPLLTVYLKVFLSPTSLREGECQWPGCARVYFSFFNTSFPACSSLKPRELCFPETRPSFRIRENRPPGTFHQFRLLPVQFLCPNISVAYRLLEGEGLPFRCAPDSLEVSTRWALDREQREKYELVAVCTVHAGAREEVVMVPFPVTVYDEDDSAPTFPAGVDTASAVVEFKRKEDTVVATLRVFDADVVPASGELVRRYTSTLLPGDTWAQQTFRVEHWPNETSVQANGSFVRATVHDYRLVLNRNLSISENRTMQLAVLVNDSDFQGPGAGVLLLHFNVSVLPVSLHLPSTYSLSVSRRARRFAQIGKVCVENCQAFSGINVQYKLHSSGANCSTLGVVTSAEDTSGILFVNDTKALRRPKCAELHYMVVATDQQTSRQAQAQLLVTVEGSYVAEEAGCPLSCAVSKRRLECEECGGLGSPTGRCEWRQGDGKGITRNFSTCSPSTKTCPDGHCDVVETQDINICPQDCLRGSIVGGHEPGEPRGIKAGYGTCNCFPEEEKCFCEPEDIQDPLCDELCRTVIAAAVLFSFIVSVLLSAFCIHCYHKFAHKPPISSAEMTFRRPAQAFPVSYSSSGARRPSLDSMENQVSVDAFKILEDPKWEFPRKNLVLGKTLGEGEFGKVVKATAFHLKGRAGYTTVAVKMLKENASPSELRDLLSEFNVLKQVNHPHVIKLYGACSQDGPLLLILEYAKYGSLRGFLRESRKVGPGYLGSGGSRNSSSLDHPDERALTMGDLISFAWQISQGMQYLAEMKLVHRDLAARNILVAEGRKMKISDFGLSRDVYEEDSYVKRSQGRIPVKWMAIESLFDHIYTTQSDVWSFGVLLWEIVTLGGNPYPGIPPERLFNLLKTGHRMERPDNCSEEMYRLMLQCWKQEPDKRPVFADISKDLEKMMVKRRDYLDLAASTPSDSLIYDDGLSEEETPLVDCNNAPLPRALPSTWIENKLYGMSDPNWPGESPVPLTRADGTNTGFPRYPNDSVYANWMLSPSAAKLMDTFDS
Experiment [15] concerns the target Homeodomain-interacting protein kinase 1 (Homo sapiens) (UniProt Q86Z02). As to the kind of experiment: Inhibition of human HIPK1 assessed as residual activity at 1 uM using RBER-CHKtide as substrate in presence of 33P-ATP by ProQinase assay relative to control.
For experiment [16], the system named is Hepatocyte growth factor receptor (Homo sapiens), P08581 [D1228N]. As to the kind of experiment: Inhibition of human MET D1228N mutant assessed as residual activity at 1 uM using poly(Ala,Glu,Lys,Tyr)6:2:5:1 as substrate in presence of 33P-ATP by ProQinase assay relative to control.

Chain of Tyrosine-protein kinase HCK (Homo sapiens) (P08631 2-526 limits assumed): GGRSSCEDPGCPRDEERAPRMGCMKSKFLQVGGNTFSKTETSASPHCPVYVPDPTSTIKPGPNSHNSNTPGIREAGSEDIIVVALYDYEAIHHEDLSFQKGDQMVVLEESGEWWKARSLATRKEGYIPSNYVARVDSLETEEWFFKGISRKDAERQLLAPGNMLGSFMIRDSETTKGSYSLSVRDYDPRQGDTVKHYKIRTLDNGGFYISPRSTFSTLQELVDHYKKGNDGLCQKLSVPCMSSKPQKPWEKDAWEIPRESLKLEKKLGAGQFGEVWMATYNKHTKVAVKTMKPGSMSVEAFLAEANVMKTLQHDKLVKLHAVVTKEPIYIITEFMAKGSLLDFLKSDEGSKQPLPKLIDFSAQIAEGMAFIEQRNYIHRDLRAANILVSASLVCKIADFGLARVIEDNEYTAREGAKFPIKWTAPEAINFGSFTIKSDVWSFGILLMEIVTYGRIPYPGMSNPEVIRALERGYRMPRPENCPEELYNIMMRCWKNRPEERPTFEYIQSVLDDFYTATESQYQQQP

For `O=C1c2ccc(Nc3ccc(F)cc3F)cc2CCc2ccc(OC[C@H](O)CO)cc21` [Skepinone-L], the Activity in experiment [1] was 92%; in experiment [2] it was 100%; in experiment [3] it was 99%; in experiment [4], 97%; in experiment [5] it was 43%; in [6] it was 93%. In addition, the Activity came out at 120% in [7]; 91% in [8]; 114% in [10]; 98% in experiment [11]; 100% in experiment [12]; 99% in experiment [13]. The values for the Activity in [14], in experiment [15] and in experiment [16] were 115%, 98% and 95%, respectively. In experiment [9], the IC50 stood at 60 nM.
